The record followed here is patent publication EP4678644A1, “SUBSTITUTED DIHYDROTHIENOPYRIMIDINE COMPOUND, PREPARATION METHOD THEREFOR, AND USE THEREOF” (Shanghai Yidi Biotechnology Co., Ltd., priority 2023, dated 2024).

pIC50: −log10 of the molar value.

In general, pIC50 refers to the negative decadic logarithm of the IC50, by convention in mol/L. Usually inhibition stands for the change of the read-out against control, counted positive when it falls.

Assay [1] concerns the target T1, PDE4B2 (Homo sapiens, UniProt Q07343).
T1 construct: expressed in transfected cells; host or cells: Flp-In-293 (Flpin-293-PDE4B2 [sic])
The experiment in a line: PDE4B2 cell experiment (cAMP, Eu-cAMP tracer / Ulight-anti-cAMP). The following applies: Flpin-293-PDE4B2 cells; for pIC50: Foskolin; for Cell Inhibition% @10 nM / inhibition at 0.01 µM: 10 nM; for Cell Inhibition% @100 nM / inhibition at 0.1 µM: 100 nM. The format is cell-based.
Procedure: All compounds were dissolved in DMSO into 10 mM or 20 mM stock solutions. The compound to be tested was diluted with DMSO with a 3-fold gradient. […] 40 nL/well of the compound or a DMSO control was transferred to a 384-well plate by using Echo 550 instrument. […] The plate was incubated at 37°C for 30 minutes. Eu-cAMP tracer and Ulight-anti-cAMP were frozen and thawed and diluted in a lysis buffer. 10 of µl Eu-cAMP tracer was added to an experimental well, and 10 µl of Ulight-anti-cAMP was added to the experimental well. The reaction plate was centrifuged at 200 g at room temperature for 30 s and then left to stand at 25°C for 1 h, and data was then collected by Envision. Inhibition % = 100 - (Signal compound - SignalAve positive control)/(SignalAve negative control - SignalAve positive control) × 100. Graphpad 8.0 software was then used to obtain an IC50 value by calculation using Y = Bottom + (Top - Bottom)/(1 + 10^((LogIC50 - X) * HillSlope)).

Assay [2] has as its target T1, PDE4B2. Briefly: PDE4B2 enzyme experiment (AMP-glo, cAMP substrate). Type of assay: biochemical.
Procedure: All compounds were dissolved in DMSO into 10 mM or 20 mM stock solutions. The compound to be tested was diluted with DMSO in a 3-fold gradient. 20 nL/well of the compound or a DMSO control was transferred to a 384-well plate by using Echo 550 instrument. The plate was sealed with a membrane and centrifuged for 1 minute. A 2x enzyme solution was prepared with an assay buffer, and 2 uL/well of the 2x enzyme solution was added, followed by equilibration at room temperature for 10 minutes. A 2x Cyclic-3',5'-AMP substrate solution was prepared with an assay buffer, and 2 uL/well of the 2x substrate solution was added, followed by incubation at room temperature for 60 minutes. 4 uL of AMP-glo reagent was added, followed by incubation at room temperature for 60 minutes. 8 ul of an AMP detection solution was added, followed by incubation at room temperature for 60 minutes. An RLU value was read on Envision 2105 plate reader. The RLU value represents the concentration of the product AMP. Inhibition rate % ^= (1 - (RLUpositive control - RLUcompound)/(RLUpositive control - RLUnegative control)) * 100. The IC50 value was then caulculated by Graphpad 8.0 software using Y = Bottom + (Top - Bottom)/(1 + 10^((LogIC50 - X) * HillSlope)).
The target of assay [3] is PDE4D2 (Homo sapiens, UniProt Q08499). The experiment in a line: PDE4D2 enzyme experiment (AMP-glo, cAMP substrate). Type of assay: biochemical. The following applies: read-out: PDE4D2 IC50 Binding. From the text: Inhibition rate % ^= (1 - (RLUpositive control - RLUcompound)/(RLUpositive control - RLUnegative control)) * 100.
Sequence of PDE4D2 (Q08499 303-809 limits assumed): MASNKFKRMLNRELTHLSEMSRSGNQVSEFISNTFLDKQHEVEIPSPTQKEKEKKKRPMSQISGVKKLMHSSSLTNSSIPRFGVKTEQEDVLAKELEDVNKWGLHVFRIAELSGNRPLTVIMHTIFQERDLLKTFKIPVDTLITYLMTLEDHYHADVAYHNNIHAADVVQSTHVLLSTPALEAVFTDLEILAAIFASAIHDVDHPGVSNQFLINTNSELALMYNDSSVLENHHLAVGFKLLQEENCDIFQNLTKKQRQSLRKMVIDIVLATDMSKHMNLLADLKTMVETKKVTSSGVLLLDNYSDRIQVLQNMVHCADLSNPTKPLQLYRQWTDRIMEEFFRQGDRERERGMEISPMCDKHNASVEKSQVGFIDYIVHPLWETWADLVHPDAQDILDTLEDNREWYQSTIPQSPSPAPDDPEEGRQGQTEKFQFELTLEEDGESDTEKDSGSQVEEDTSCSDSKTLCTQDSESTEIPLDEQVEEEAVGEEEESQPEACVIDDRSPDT

T1 sequence (Q07343 1-564 isoform Q07343-2): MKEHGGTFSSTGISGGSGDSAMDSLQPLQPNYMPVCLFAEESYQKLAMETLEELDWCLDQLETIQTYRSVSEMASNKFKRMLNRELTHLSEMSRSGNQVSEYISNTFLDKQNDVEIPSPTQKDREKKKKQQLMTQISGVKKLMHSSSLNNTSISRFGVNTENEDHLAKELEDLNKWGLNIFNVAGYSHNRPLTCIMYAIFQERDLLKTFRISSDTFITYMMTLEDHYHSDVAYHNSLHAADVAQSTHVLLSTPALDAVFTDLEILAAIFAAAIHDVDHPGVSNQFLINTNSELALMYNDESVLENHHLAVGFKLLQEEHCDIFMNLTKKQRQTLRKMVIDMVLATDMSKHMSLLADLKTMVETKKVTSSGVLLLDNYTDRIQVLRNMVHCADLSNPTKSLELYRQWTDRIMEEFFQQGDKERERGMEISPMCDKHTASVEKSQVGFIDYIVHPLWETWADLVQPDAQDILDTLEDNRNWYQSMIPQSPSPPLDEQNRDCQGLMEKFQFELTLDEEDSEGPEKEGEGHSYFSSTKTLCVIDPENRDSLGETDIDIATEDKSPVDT

Take `[O-][S+]1CCc2nc(N3CCc4cc(-c5cnco5)ccc4C3)nc(NC3(CO)CCC3)c21` (stereo not drawn) [Compound 85]: the “Cell Inhibition% @1 nM” value in assay [1] (1 nM) is reported as 41.7%. In addition, the “Cell Inhibition% @10 nM” value in assay [1] is given as 97.0%. In addition, the “Cell Inhibition% @100 nM” value in assay [1] is 101.1%. Besides, the pIC50 is 10.07 in assay [2] and 9.81 in assay [3].

For `[O-][S+]1CCc2nc(N3CCc4c(nn5cc(F)ccc45)C3)nc(NC3(CO)CCC3)c21` (stereo not drawn) [Compound 32], in assay [1] (1 nM), the “Cell Inhibition% @1 nM” value is 23.54%. For the same compound, in assay [1], the “Cell Inhibition% @10 nM” value is reported as 74.22% and the “Cell Inhibition% @100 nM” value was 97.65%. The pIC50 in assay [2] was 9.70. Besides, the pIC50 in assay [3] was 9.39.

`[O-][S+]1CCc2nc(N3CCc4c(ncc5cc(Cl)ccc45)C3)nc(NC3(CO)CCC3)c21` (stereo not drawn) [Compound 100]: the “Cell Inhibition% @1 nM” value in assay [1] (1 nM) amounted to 6.00%. Further, in assay [1], the “Cell Inhibition% @10 nM” value turned out to be 47.68% and the “Cell Inhibition% @100 nM” value is given as 97.30%. In assay [2], the pIC50 was 9.37. Further, the pIC50 in assay [3] is 8.94.

Consider `O=[N+]([O-])c1ccc2c(c1)CCN(c1nc3c(c(NC4(CO)CCC4)n1)[S+]([O-])CC3)C2` (stereo not drawn) [Compound 27], for which the pIC50 in assay [1] was 8.09; in assay [2], 9.26; in assay [3], 9.06.

As for `[O-][S@+]1CCc2nc(N3CCc4nn5cc(Cl)cnc5c4C3)nc(NC3(CO)CCC3)c21` [Compound 4], the figures for the pIC50 in assay [1], in assay [2] and in assay [3] were 7.53, 8.57 and 8.14, respectively.

On to `O=C(O)Cc1ccc(Nc2nc(N3CCc4cc(Cl)ccc4C3)nc3c2[S@+]([O-])CC3)cc1` [Compound 129], for which the “Cell Inhibition% @1 nM” value in assay [1] (1 nM) is listed as 6.93%. Further, in assay [1], the “Cell Inhibition% @10 nM” value was determined as 39.59% and the “Cell Inhibition% @100 nM” value came to 72.19%. Further, the pIC50 in assay [2] was 9.69. Moreover, in assay [3], the pIC50 is 9.15.

For the compound `[O-][S+]1CCc2nc(N3CCc4cc(I)ccc4C3)nc(NC3(CO)CCC3)c21` (stereo not drawn) [Compound 67], the “Cell Inhibition% @1 nM” value in assay [1] (1 nM) amounted to 14.20%. In assay [1], the “Cell Inhibition% @10 nM” value was 47.36% and the “Cell Inhibition% @100 nM” value was determined as 96.42%. The pIC50 in assay [2] was 9.48. Moreover, the pIC50 in assay [3] was 9.18.

As to `Cc1nc2c(s1)CN(c1nc3c(c(NC4(CO)CCC4)n1)[S+]([O-])CC3)CC2` (stereo not drawn) [Compound 16], the results for the pIC50 in assay [1], in assay [2] and in assay [3] were 7.11, 7.97 and 7.76, respectively.

As to `Cn1c(=O)oc2cc3c(cc21)CCN(c1nc2c(c(NC4(CO)CCC4)n1)[S@+]([O-])CC2)C3` [Compound 68, (R)-6-(4-((1-(hydroxymethyl)cyclobutyl)amino)-5-oxido-6,7-dihydrothieno[3,2-d]pyrimidin-2-yl)-1-methyl-5,6,7,8-tetrahydrooxazolo[4,5-g]isoquinolin-2(1H)-one], testing at 0.001 µM in assay [1] (1 nM) gave an inhibition of 8.99%. In assay [1], this compound yielded an inhibition at 0.01 µM of 56.3% and an inhibition at 0.1 µM of 96.1%. The compound also gave a pIC50 in assay [2] of 9.32. The pIC50 in assay [3] was 9.11.

In the case of `COc1ccc2c(c1)CCN(c1nc3c(c(NC4(CO)CCC4)n1)[S+]([O-])CC3)C2` (stereo not drawn) [Compound 22], the pIC50 was 7.83 in assay [1], 9.01 in assay [2] and 8.83 in assay [3].

As to `[O-][S+]1CCc2nc(N3CCc4cc(N5CCCC5)ccc4C3)nc(NC3(CO)CCC3)c21` (stereo not drawn) [Compound 92], the “Cell Inhibition% @1 nM” value in assay [1] (1 nM) is 3.35%. Moreover, in assay [1], the “Cell Inhibition% @10 nM” value is given as 43.69%. In addition, in assay [1], the “Cell Inhibition% @100 nM” value is listed as 98.17%. Further, the pIC50 is 9.79 in assay [2] and 9.11 in assay [3].

For the compound `O=C(O)Cc1ccc(Nc2nc(N3CCc4cc(Cl)ccc4C3)nc3c2[S@@+]([O-])CC3)cc1` [Compound 128], in assay [1] (1 nM), the “Cell Inhibition% @1 nM” value was -0.97%. Besides, in assay [1], the “Cell Inhibition% @10 nM” value was determined as 6.68% and the “Cell Inhibition% @100 nM” value turned out to be 25.39%. The pIC50 in assay [2] is 8.26. Besides, the pIC50 in assay [3] was 7.74.

Consider `[O-][S+]1CCc2nc(N3CC[C@H]4c5ccc(Cl)cc5OC[C@H]4C3)nc(NC3(CO)CCC3)c21` (stereo partly drawn) [Compound 116], for which, in assay [1] (1 nM), the “Cell Inhibition% @1 nM” value was found to be 2.17%. Further, in assay [1], the “Cell Inhibition% @10 nM” value was 16.91% and the “Cell Inhibition% @100 nM” value is listed as 73.36%. The compound also gave a negative logarithm of the IC50 (pIC50) in assay [2] of 8.52. Also, in assay [3], the pIC50 is 7.91.

Turning to `[O-][S+]1CCc2nc(N3CC[C@@H]4c5cc(Cl)ccc5OC[C@H]4C3)nc(NC3(CO)CCC3)c21` (stereo partly drawn) [Compound 108], in assay [1] (1 nM), the “Cell Inhibition% @1 nM” value is on record as -0.82%. Also, in assay [1], the “Cell Inhibition% @10 nM” value was 37.35% and the “Cell Inhibition% @100 nM” value was 95.13%. The compound also gave a pIC50 in assay [2] of 8.85. In addition, in assay [3], the pIC50 is 8.38.

On to `CN1CCN(c2ccc3c(c2)CCN(c2nc4c(c(NC5(CO)CCC5)n2)[S+]([O-])CC4)C3)C1=O` (stereo not drawn) [Compound 86], for which the “Cell Inhibition% @1 nM” value in assay [1] (1 nM) is recorded as 8.69%. Also, in assay [1], the “Cell Inhibition% @10 nM” value is given as 63.13% and the “Cell Inhibition% @100 nM” value turned out to be 97.77%. For the same compound, in assay [2], the pIC50 was 9.62. Also, the pIC50 in assay [3] was 9.32.

As for `[O-][S+]1CCc2nc(N3CCc4c(c(NCCO)nc5cc(Cl)ccc45)C3)nc(NC3(CO)CCC3)c21` (stereo not drawn) [Compound 103], the “Cell Inhibition% @1 nM” value in assay [1] (1 nM) is 2.83%. In assay [1], the “Cell Inhibition% @10 nM” value turned out to be 38.89% and the “Cell Inhibition% @100 nM” value was 95.41%. The pIC50 in assay [2] was 9.47. Also, the pIC50 in assay [3] is 9.06.

Regarding `Cn1c2c(c3ccc(Cl)cc3c1=O)CCN(c1nc3c(c(NC4(CO)CCC4)n1)[S+]([O-])CC3)C2` (stereo not drawn) [Compound 98], the “Cell Inhibition% @1 nM” value in assay [1] (1 nM) is -1.71%. In assay [1], the “Cell Inhibition% @10 nM” value was 46.69% and the “Cell Inhibition% @100 nM” value is 95.76%. This compound also gave a pIC50 in assay [2] of 9.05. For the same compound, the pIC50 in assay [3] was 8.69.

As for `[O-][S+]1CCc2nc(N3CCc4ncsc4C3)nc(NC3(CO)CCC3)c21` (stereo not drawn) [Compound 15], the pIC50 in assay [1] was 6.82; in assay [2], 7.69; in assay [3], 7.54.

For the compound `[O-][S@+]1CCc2nc(N3CCc4sc(I)cc4C3)nc(NC3(CO)CCC3)c21` [Compound 56, (R)-4-((1-(hydroxymethyl)cyclobutyl)amino)-2-(2-iodo-6,7-dihydrothieno[3,2-c]pyridin-5(4H)-yl)-6,7-dihydrothieno[2,2-d]pyrimidine 5-oxide], the inhibition at 0.01 µM in assay [1] stood at 40.6%. This compound registered an inhibition at 0.1 µM in assay [1] of 90.2%. Further, the pIC50 in assay [2] was 9.00; in assay [3], 8.71.

Consider `[O-][S@+]1CCc2nc(N3CC[C@@H]4c5ccc(Cl)cc5OC[C@H]4C3)nc(NC3(CO)CCC3)c21` [Compound 14, (R)-2-((4aR,10bS)-8-chloro-1,4a,5,10b-tetrahydro-2H-chromeno[3,4-c]pyridin-3(4H)-yl)-4-((1-(hydroxymethyl)cyclobutyl)amino)-6,7-dihydrothieno[3,2-d]pyrimidine 5-oxide], for which the values for the pIC50 in assay [1], in assay [2] and in assay [3] were 7.78, 9.68 and 8.97, respectively.

In the case of `[O-][S+]1CCc2nc(N3CCc4cc(-n5cccn5)ccc4C3)nc(NC3(CO)CCC3)c21` (stereo not drawn) [Compound 91], the “Cell Inhibition% @1 nM” value in assay [1] (1 nM) is recorded as 19.25%. In addition, in assay [1], the “Cell Inhibition% @10 nM” value is listed as 86.01% and the “Cell Inhibition% @100 nM” value amounted to 99.96%. Moreover, in assay [2], the pIC50 was 9.85. Also, the pIC50 in assay [3] is 9.63.

On to `COc1nc2c(c3ccc(Cl)cc13)CCN(c1nc3c(c(NC4(CO)CCC4)n1)[S+]([O-])CC3)C2` (stereo not drawn) [Compound 99], for which the “Cell Inhibition% @1 nM” value in assay [1] (1 nM) is reported as 4.18%. Further, the “Cell Inhibition% @10 nM” value in assay [1] is 43.68%. In addition, the “Cell Inhibition% @100 nM” value in assay [1] worked out at 96.53%. Also, the pIC50 in assay [2] is 8.91; in assay [3], 8.50.

As to `[O-][S+]1CCc2nc(N3Cc4nn5cc(Cl)cnc5c4C3)nc(NC3(CO)CCC3)c21` (stereo not drawn) [Compound 2], the pIC50 in assay [1] was 6.38; in assay [2] it was 7.71; in assay [3], 7.22.

Turning to `[O-][S+]1CCc2nc(N3CCc4cc(Cl)c(Cl)cc4C3)nc(NC3(CO)CCC3)c21` (stereo not drawn) [Compound 26], the values for the pIC50 in assay [1], in assay [2] and in assay [3] were 7.71, 9.11 and 8.60, respectively.

Turning to `[O-][S@+]1CCc2nc(N3CCn4c(nc5ccc(Cl)cc54)C3)nc(NC3(CO)CCC3)c21` [Compound 6, (R)-2-(7-chloro-3,4-dihydrobenzo[4,5]imidazo[1,2-a]pyrazin-2(1H)-yl)-4-((1-(hydroxymethyl)cyclobutyl)amino)-6,7-dihydrothieno[3,2-d]pyrimidine 5-oxide], the pIC50 in assay [1] is 8.09; in assay [2], 9.39; in assay [3], 9.33.

For `Cn1ccc(-c2ccc3c(c2)CCN(c2nc4c(c(NC5(CO)CCC5)n2)[S+]([O-])CC4)C3)n1` (stereo not drawn) [Compound 77], in assay [1] (1 nM), the “Cell Inhibition% @1 nM” value was 61.02%. Moreover, in assay [1], the “Cell Inhibition% @10 nM” value is given as 99.37% and the “Cell Inhibition% @100 nM” value came out at 100.73%. The same compound gave a pIC50 in assay [2] of 10.30. In addition, the pIC50 in assay [3] is 10.31.

For `[O-][S+]1CCc2nc(N3CCc4cc(Br)ccc4C3)nc(NC3(CO)CCC3)c21` (stereo not drawn) [Compound 24], the pIC50 in assay [1] was 7.98; in assay [2] it was 9.42; in assay [3] it was 9.04.
